Results as given in ChEMBL document CHEMBL1137123, “Himbacine analogs as muscarinic receptor antagonists--effects of tether and heterocyclic variations” (Bioorg Med Chem Lett, 2004).
pKi: −log10 of the molar value.

Key:
[1] = target: T1, Muscarinic acetylcholine receptor M1 (Homo sapiens, UniProt P11229); assay: In vitro inhibitory activity against cloned human M1 muscarinic receptor
T1 sequence (P11229 whole entry): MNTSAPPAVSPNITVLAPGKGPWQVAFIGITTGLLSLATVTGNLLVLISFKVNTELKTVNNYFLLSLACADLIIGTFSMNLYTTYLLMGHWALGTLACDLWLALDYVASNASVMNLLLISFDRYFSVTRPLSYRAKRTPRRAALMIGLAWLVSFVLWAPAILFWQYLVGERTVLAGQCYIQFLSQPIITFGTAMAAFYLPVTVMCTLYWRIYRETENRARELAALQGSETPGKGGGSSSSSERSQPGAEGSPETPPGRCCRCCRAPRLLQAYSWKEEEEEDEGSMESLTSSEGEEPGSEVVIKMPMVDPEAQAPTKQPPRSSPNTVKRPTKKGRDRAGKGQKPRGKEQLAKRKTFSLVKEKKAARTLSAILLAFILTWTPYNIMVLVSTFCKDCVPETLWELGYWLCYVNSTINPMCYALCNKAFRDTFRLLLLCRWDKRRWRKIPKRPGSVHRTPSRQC

[2] = target: T2, Muscarinic acetylcholine receptor M2 (Homo sapiens, UniProt P08172); assay: In vitro inhibitory activity against cloned human M2 muscarinic receptor
T2 sequence (P08172 whole entry): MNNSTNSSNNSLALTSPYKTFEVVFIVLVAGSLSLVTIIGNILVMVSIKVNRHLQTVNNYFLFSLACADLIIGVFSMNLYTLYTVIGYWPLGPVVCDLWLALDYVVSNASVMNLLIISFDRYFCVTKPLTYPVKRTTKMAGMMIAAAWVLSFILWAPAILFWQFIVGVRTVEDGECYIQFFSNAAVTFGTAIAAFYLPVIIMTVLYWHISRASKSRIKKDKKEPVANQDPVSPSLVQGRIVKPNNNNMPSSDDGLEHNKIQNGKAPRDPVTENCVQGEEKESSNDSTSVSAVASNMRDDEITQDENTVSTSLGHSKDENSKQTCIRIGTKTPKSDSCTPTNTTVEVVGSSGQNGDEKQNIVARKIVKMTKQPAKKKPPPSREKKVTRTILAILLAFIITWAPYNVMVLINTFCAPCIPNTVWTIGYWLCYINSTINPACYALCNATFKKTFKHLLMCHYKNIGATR

Compound | pKi [1] | pKi [2]
C[C@@H]1OC(=O)[C@H]2C[C@H]3CCCC[C@@H]3/C(=C/CC3CCC(C)(C)N3C)[C@@H]12 (some centres not stated) | 6.38 | 7.37
C[C@@H]1OC(=O)[C@H]2C[C@H]3CCCC[C@@H]3[C@@H](CC[C@H]3CCC[C@H](C)N3)[C@@H]12 | 7.17 | 7.80
C[C@@H]1OC(=O)[C@H]2C[C@H]3CCCC[C@@H]3[C@@H](CC[C@H]3CCC[C@H](C)N3C)[C@@H]12 | 7.49 | 8.37
C[C@@H]1OC(=O)[C@H]2C=C3CCCC[C@@H]3[C@@H]([C@@H]3CC4CCC(C)(C)[N+]4(C)O3)[C@@H]12 (some centres not stated) | 6.10 | 6.74
C[C@@H]1OC(=O)[C@H]2C=C3CCCC[C@@H]3[C@@H]([C@@H]3CC4CCC(C)(C)N4O3)[C@@H]12 (some centres not stated) | < 5.85 | < 5.85
C[C@@H]1OC(=O)[C@H]2C[C@H]3CCCC[C@@H]3[C@@H](/C=C/[C@H]3CCC[C@H](C)N3C)[C@@H]12 [HIMBACINE] | 7.32 | 8.35
C[C@@H]1OC(=O)[C@H]2C=C3CCCC[C@@H]3/C(=C/CC3CCC(C)(C)[N+]3(C)C)[C@@H]12 (some centres not stated) | 6.35 | 6.24
C[C@@H]1OC(=O)[C@H]2C[C@H]3CCCC[C@@H]3[C@@H](/C(O)=C/[C@H]3CCC[C@H](C)N3C)[C@@H]12 | 5.80 | 6.69
C[C@@H]1OC(=O)[C@H]2C=C3CCCC[C@@H]3/C(=C/CC3CCC(C)(C)N3C)[C@@H]12 (some centres not stated) | 6.75 | 7.17
C[C@@H]1OC(=O)[C@H]2C[C@H]3CCCC[C@@H]3[C@@H]([C@@H](O)C[C@H]3CCC(C)(C)N3C)[C@@H]12 | < 5.85 | < 5.85
CCN1C(CCC2[C@H]3[C@H](C)OC(=O)[C@H]3C[C@H]3CCCC[C@H]23)CCC1(C)C (some centres not stated) | 6.09 | 6.35
C[C@@H]1OC(=O)[C@H]2C[C@H]3CCCC[C@@H]3/C(=C/C[C@H]3CCC[C@H](C)N3C)[C@@H]12 | 7.18 | 7.88
C[C@@H]1OC(=O)[C@H]2C[C@H]3CCCC[C@@H]3C(CCC3CCC(C)(C)N3C)[C@@H]12 (some centres not stated) | 6.91 | 7.91
C[C@@H]1OC(=O)[C@H]2C[C@H]3CCCC[C@@H]3[C@@H](/C=C/[C@@H]3CCC[C@H](C)N3C)[C@@H]12 | < 5.85 | < 5.85
CCN1C(C/C=C2\[C@H]3[C@H](C)OC(=O)[C@H]3C=C3CCCC[C@@H]32)CCC1(C)C (some centres not stated) | 6.19 | < 5.85
C[C@@H]1OC(=O)[C@H]2C[C@H]3CCCC[C@@H]3[C@@H](/C=C/[C@@H]3CCC[C@H](C)N3)[C@@H]12 | < 5.85 | < 5.85
